The source of these data is patent US20260102387A1, “IMMUNOSUPPRESSIVE COMPOUNDS” (UNIVERSITÄT BASEL, priority 2022, published 2026).

The subject of assay [1] is coronin 1 promoter. Nature of the assay: Fluorescence-based screening assay: coronin 1 promoter driven GFP in RBL cells (microplate reader / microscopy). In kind it is cell-based. As to conditions: RBL, 48 h, read-out: GFP values (%). The procedure:
The murine coronin 1 promoter sequences of SEQ ID NO: 1-6 were each cloned into a plasmid lacking a promoter (promoterless) but containing a destabilized Green Fluorescence Protein (GFP) cassette. Rat Basophil Leukemia (RBL) cells were transfected with the plasmids, stable GFP expressing cells were enriched, incubated with various compounds and assessed for coronin 1 promoter inhibition by assessing green fluorescence values (FIG. 2).
The plasmids were independently transfected into immune cells (Rat basophil Leukemia, RBL cells) to generate green and red fluorescent RBL cells that were subsequently enriched by means of flow cytometry. These cells were then mixed in equal ratio (1:1) and incubated in a 96 well plate at 100,000 cells/well in a volume of 200 μl of phenol red free RPMI supplemented with 8% fetal calf serum, L-glutamate and antibiotics (penicillin, […]) from available chemical libraries. At defined time points (8 h, 24 h and 48 h), the GFP and RFP fluorescence was measured using a 96 well microplate reader (Synergy, BioTek Instruments). […] Selected compounds show different levels of modulation of coronin 1 promoter driven GFP and CMV promoter driven RFP fluorescence. GFP and RFP fluorescence were analyzed with a microplate reader upon incubation with the top coronin 1 promoter inhibiting compounds. Shown are percentage of GFP reduction (left column) and percentage of RFP reduction (right column) for the compounds at 5 μg/ml concentration at 48 h. Cycloheximide (CHX) serves as positive control whereas media and DMSO serve as negative controls. […] Cells were imaged using a fluorescence microscope to validate fluorescence inhibition (FIG. 3A) and as well assess morphology and viability (in addition to GFP down regulation confirmation). In addition, quantitative Polymerase Chain Reaction (qPCR) for coronin 1 mRNA transcripts reveal reduction with compound 11 (FIG. 3B). The primers used for the qPCR on RBL cells are listed below as follows;

For assay [2], the system named is early cytomegalovirus promoter. Kind of assay: Screening assay control: CMV promoter driven RFP in RBL cells (microplate reader). Particulars: 48 h. In kind it is cell-based. As to the method: As an unrelated promoter, the early cytomegaloviral promoter element was cloned into a promoterless Red Fluorescence Protein (RFP) expression plasmid. Rat Basophil Leukemia (RBL) cells were transfected with the plasmid, stable RFP expressing cells enriched, incubated with various compounds and were assessed for red fluorescence values. Analyzing the inhibition of an unrelated promoter (in this case, early cytomegalovirus promoter) that drove Red Fluorescence Protein (RFP) expression assessed non-specificity of the compound under analysis.
The plasmids were independently transfected into immune cells (Rat basophil Leukemia, RBL cells) to generate green and red fluorescent RBL cells that were subsequently enriched by means of flow cytometry. These cells were then mixed in equal ratio (1:1) and incubated in a 96 well plate at 100,000 cells/well in a volume of 200 μl of phenol red free RPMI supplemented with 8% fetal calf serum, L-glutamate and antibiotics (penicillin, streptomycin) and various compounds (3 and 5 μg/ml concentrations) from available chemical libraries. At defined time points (8 h, 24 h and 48 h), the GFP and RFP fluorescence was measured using a 96 well microplate reader (Synergy, BioTek Instruments). […] Selected compounds show different levels of modulation of coronin 1 promoter driven GFP and CMV promoter driven RFP fluorescence. GFP and RFP fluorescence were analyzed with a microplate reader upon incubation with the top coronin 1 promoter inhibiting compounds. Shown are percentage of GFP reduction (left column) and percentage of RFP reduction (right column) for the compounds at 5 μg/ml concentration at 48 h. Cycloheximide (CHX) serves as positive control whereas media and DMSO serve as negative controls. […] Cells were imaged using a fluorescence microscope to validate fluorescence inhibition (FIG. 3A) and as well assess morphology and viability (in addition to GFP down regulation confirmation). In addition, quantitative Polymerase Chain Reaction (qPCR) for coronin 1 mRNA transcripts reveal reduction with compound 11 (FIG. 3B). The primers used for the qPCR on RBL cells are listed below as follows;

Assay [3] has as its system coronin 1 promoter. Nature of the assay: EC50 analysis for coronin 1 promoter driven GFP inhibition by flow cytometry in RBL cells. In kind it is cell-based. As to conditions: RBL, RBL cells, 48-65 h, flow cytometry. The procedure: RBL cells that had been incubated with the indicated calcium channel blockers (amlodipine (3.125 μM) and verapamil (8 μM) concentrations for 48 h were analyzed by flow cytometry for any alteration in coronin 1 promoter driven GFP fluorescence. The results reveal no effect of calcium channel blockers on coronin 1 promoter activity (FIG. 4).
(§1) RBL cells expressing GFP under coronin 1 promoter and optionally with RBL cells expressing RFP under CMV promoter were mixed in equal numbers and incubated with the compounds at indicated concentrations for 48-65 h and analyzed by flow cytometry for alteration in coronin 1 promoter (GFP fluorescence), CMV promoter (RFP fluorescence) values. In addition, the cells were labelled with live-dead marker for assessing cell viability status by flow cytometry. Cycloheximide (CHX) serves as positive control and DMSO serves as negative controls. Effective Concentration (EC50) values for coronin 1 promoter inhibition via GFP fluorescence analysis, non-specific promoter inhibition via CMV promoter driven-RFP fluorescence analysis and cell viability via live/dead staining as a measure for toxicity in flow cytometry for compounds (10-22 and 50a-65a) are shown in Table 6 and Table 7. Based on the EC50 analysis of the inhibition of coronin 1 promoter driven GFP fluorescence the (4S,7R)-configurated eutomers were identified (Structures FIG. 9A-C). This is exemplified for compounds containing two stereocenters by eutomers 11c and 13a. […] Subsequent EC50 evaluations (Table 7) were performed with compound 13a as standard for relative potency normalized to a value of 1.00 (relative potency calculated as [EC50 GFP inhibition 13a]/[EC50 GFP inhibition compound of interest]).
For orientation: Flow cytometry measures light scatter and fluorescence of single cells or particles in a stream.

The test system of a further assay is CMV promoter. Nature of the assay: EC50 analysis for CMV promoter driven RFP inhibition (non-specific activity) by flow cytometry in RBL cells. In kind it is cell-based, cytomegalovirus. As to conditions: 48-65 h, read-out: EC50 RFP alteration. The procedure:
as §1

The next assay has as its system RBL cells. Nature of the assay: Cell viability by live-dead staining (cytotoxicity), flow cytometry. In kind it is cell-based, Rat. As to conditions: Rattus norvegicus, RBL, cell viability via live/dead staining, 48-65 h, read-out: EC50 Toxicity. As to the method: as §1
The test system of assay [4] is BRD2, BRD3 and BRD4 proteins. As to conditions: reported TPP data; cited from earlier work.
Where [5] appears, read: 5 μg/ml, microplate reader, DMSO = 100.
[6] abbreviates: 5 μg/ml, microplate reader, DMSO = 100, read-out: RFP values (%).

Where two headings read alike, the source gives them in different places. Bounds are passed on as bounds.

`COc1ccccc1C1CC(=O)C2=C(C1)NC(C)=C(C(=O)OCC1CCCO1)C2c1cccs1` (stereo not shown) [Comp. 1, tetrahydro-2-furanylmethyl-7-(2-methoxyphenyl)-2-methyl-5-oxo-4-(2-thienyl)-1,4,5,6,7,8-hexahydro-3-quinolinecarboxylate]: the activity at 5 µg/mL in the assay with coronin 1 promoter [1] (setting [5]) amounted to 35%; in assay [2] (setting [6]) it was 66%.
On to `COC(=O)C1=C(C)NC2=C(C(=O)CC(c3cccs3)C2)C1c1cccc(O)c1` (stereo not shown) [Comp. 5, methyl-4-(3-hydroxyphenyl)-2-methyl-5-oxo-7-(2-thienyl)-1,4,5,6,7,8-hexahydro-3-quinolinecarboxylate], for which the activity at 5 µg/mL in the assay on coronin 1 promoter [1] (setting [5]) was 74%; in assay [2] (setting [6]), 108%.
`COC(=O)C1=C(C)NC2=C(C(=O)CC(c3ccc(OC)cc3)C2)C1c1cccc(O)c1` (stereo not shown) [Comp. 8, methyl-4-(3-hydroxyphenyl)-7-(4-methoxyphenyl)-2-methyl-5-oxo-1,4,5,6,7,8-hexahydro-3-quinolinecarboxylate]: the activity at 5 µg/mL in the assay with coronin 1 promoter [1] (setting [5]) was determined as 87%; in assay [2] (setting [6]), 97%.
For the compound `COc1ccccc1C1CC(=O)C2=C(C1)NC(C)=C(C(=O)OCC1CCCO1)C2c1ccccc1F` (stereo not shown) [Comp. 10, tetrahydro-2-furanylmethyl-4-(2-fluorophenyl)-7-(2-methoxyphenyl)-2-methyl-5-oxo-1,4,5,6,7,8-hexahydro-3-quinolinecarboxylate], the activity at 5 µg/mL with coronin 1 promoter [1] (setting [5]) stood at 48%; in assay [2] (setting [6]), 110%. Besides, the EC50 in the assay with coronin 1 promoter [3] was 0.8 µM; in the assay on CMV promoter it was 1 µM; in the assay with RBL cells it was above 7.5 µM.
For the compound `CC1=C(C(=O)OCC2CCCO2)C(c2cccc([N+](=O)[O-])c2)C2=C(CC(c3cccs3)CC2=O)N1` (stereo not shown) [Comp. 6, tetrahydro-2-furanylmethyl-2-methyl-4-(3-nitrophenyl)-5-oxo-7-(2-thienyl)-1,4,5,6,7,8-hexahydro-3-quinolinecarboxylate], the activity at 5 µg/mL is 68% in the assay with coronin 1 promoter [1] (setting [5]) and 75% in assay [2] (setting [6]).
Take `COC(=O)C1=C(C)NC2=C(C(=O)CC(c3ccc(Cl)cc3)C2)C1c1cccc(O)c1` (stereo not shown) [Comp. 22, methyl 7-(4-chlorophenyl)-4-(3-hydroxyphenyl)-2-methyl-5-oxo-1,4,5,6,7,8-hexahydroquinoline-3-carboxylate]: the activity at 5 µg/mL in the assay on coronin 1 promoter [1] (setting [5]) worked out at 55%; in assay [2] (setting [6]), 70%.
On to `COC(=O)C1=C(C)NC2=C(C(=O)CC(c3ccccc3OC)C2)C1c1ccc(F)cc1` (stereo not shown) [Comp. 2, methyl-4-(4-fluorophenyl)-7-(2-methoxyphenyl)-2-methyl-5-oxo-1,4,5,6,7,8-hexahydro-3-quinolinecarboxylate], for which the results for the activity at 5 µg/mL (in the assay on coronin 1 promoter [1] (setting [5]); in assay [2] (setting [6])) were 52% and 81%, respectively.
Regarding `Cc1sc2c(c1C)C(c1ccc(Cl)cc1)=N[C@@H](CC(=O)OC(C)(C)C)c1nnc(C)n1-2` [JQ1], the “thermal stabilization of BRD2, BRD3 and BRD4 proteins” value in assay [4] is “thermal stabilization”.
For `COC(=O)C1=C(C)NC2=C(C(=O)CC(c3ccccc3OC)C2)C1c1cccs1` (stereo not shown) [Comp. 9, methyl-7-(2-methoxyphenyl)-2-methyl-5-oxo-4-(2-thienyl)-1,4,5,6,7,8-hexahydro-3-quinolinecarboxylate], the figures for the activity at 5 µg/mL (in the assay with coronin 1 promoter [1] (setting [5]); in assay [2] (setting [6])) were 58% and 97%, respectively.
As to `COc1cc(OC)c2c(=O)[nH]c(-c3cc(C)c(OCCO)c(C)c3)nc2c1` [RVX-208], the “thermal stabilization of BRD2, BRD3 and BRD4 proteins” value in assay [4] was “thermal stabilization”.
In the case of `CCSCCOC(=O)C1=C(C)NC2=C(C(=O)CC(c3ccccc3OC)C2)C1c1ccsc1` (stereo not shown) [Comp. 3, 2-(ethylthio)ethyl-7-(2-methoxyphenyl)-2-methyl-5-oxo-4-(3-thienyl)-1,4,5,6,7,8-hexahydro-3-quinolinecarboxylate], the figures for the activity at 5 µg/mL (in the assay on coronin 1 promoter [1] (setting [5]); in assay [2] (setting [6])) were 63% and 80%, respectively.
For `C[C@@H]1C[C@@H]([C@H](O)CC2CC(=O)NC(=O)C2)C(=O)[C@@H](C)C1` [CHX, cycloheximide, reference compound], the values for the activity at 5 µg/mL (with coronin 1 promoter [1]; in assay [2] (read-out: RFP values (%))) were 21% and 40%, respectively.
Turning to `CC1=C(C(=O)OCC2CCCO2)C(c2ccsc2)C2=C(C[C@@H](c3cccs3)CC2=O)N1` (mixture of isomers) [Comp. 7, tetrahydro-2-furanylmethyl-2-methyl-5-oxo-7-(2-thienyl)-4-(3-thienyl)-1,4,5,6,7,8-hexahydro-3-quinolinecarboxylate], the activity at 5 µg/mL amounted to 77% in the assay with coronin 1 promoter [1] (setting [5]) and 95% in assay [2] (setting [6]).
Take `COc1ccccc1C1CC(=O)C2=C(C1)NC(C)=C(C(=O)OCC1CCCO1)C2c1cccc(O)c1` (stereo not shown) [Comp. 12, tetrahydro-2-furanylmethyl-4-(3-hydroxyphenyl)-7-(2-methoxyphenyl)-2-methyl-5-oxo-1,4,5,6,7,8-hexahydro-3-quinolinecarboxylate]: the activity at 5 µg/mL in the assay with coronin 1 promoter [1] (setting [5]) was 46%; in assay [2] (setting [6]), 153%. Further, the EC50 in the assay with coronin 1 promoter [3] was 0.34 µM; with CMV promoter, above 1 µM; in the assay on RBL cells, above 3 µM.
On to `COc1ccccc1C1CC(=O)C2=C(C1)NC(C)=C(C(=O)OCC1CCOCC1)C2c1cccc(O)c1` (stereo not shown) [compound 18, (tetrahydro-2H-pyran-4-yl)methyl 4-(3-hydroxyphenyl)-7-(2-methoxyphenyl)-2-methyl-5-oxo-1,4,5,6,7,8-hexahydroquinoline-3-carboxylate], for which the EC50 in the assay on coronin 1 promoter [3] is 0.2 µM; in the assay with CMV promoter, above 2.5 µM; with RBL cells, above 2.5 µM.
Turning to `COC(=O)C1=C(C)NC2=C(C(=O)CC(c3ccccc3)C2)C1c1cccc(O)c1` (stereo not shown) [Comp. 4, methyl 4-(3-hydroxyphenyl)-2-methyl-5-oxo-7-phenyl-1,4,5,6,7,8-hexahydroquinoline-3-carboxylate], the activity at 5 µg/mL is 60% in the assay with coronin 1 promoter [1] (setting [5]) and 85% in assay [2] (setting [6]).
Turning to `COc1ccccc1C1CC(=O)C2=C(C1)NC(C)=C(C(=O)OC1CCOCC1)C2c1cccc(O)c1` (stereo not shown) [compound 13, tetrahydro-2H-pyran-4-yl-4-(3-hydroxyphenyl)-7-(2-methoxyphenyl)-2-methyl-5-oxo-1,4,5,6,7,8-hexahydro-3-quinolinecarboxylate], the EC50 in the assay on coronin 1 promoter [3] was 0.12 µM; with CMV promoter it was above 2.5 µM; with RBL cells it was above 2.5 µM.
